Experimental data published in paper PMC12463105, “NSP7 Molecular Degrader Attenuates Coronaviral Infection Through the β‐TrCP1/FBXO5 Axis” (Advanced Science, 2025).

How the values were obtained:
[1] = system: SARS-CoV-2 NSP7-HiBiT; conditions: read-out: NSP7- HiBiT; reduction of NSP7-HiBiT signal; degrader
[2] = system: T1, HCoV-OC43; assay: microbe, parasite or virus in culture; set-up: HCoV-OC43 infection assay, reduction of viral infection; conditions: Betacoronavirus 1, OC43, read-out: OC43
T1 construct: ATCC VR-1558

SMILES	IC50 [1] [µM]	IC50 [2] [µM]
CCSc1nsc(NC(=O)Nc2ccc(Cl)c(C(F)(F)F)c2)n1 [BC24852, 5-{3-[4-chloro-3-(trifluoromethyl)phenyl]ureido}-3-(ethylthio)-1,2,4-thiadiazole]	2.76	0.907
CCSc1nsc(NC(=O)N[C@@H](C)CC)n1 [BC24892, 5-{3-[(S)-1-methylpropyl]ureido}-3-(ethylthio)-1,2,4-thiadiazole]	> 100	> 100
CCSc1nsc(NC(=O)Nc2ccc(C)cc2)n1 [BC24854, 3-(ethylthio)-5-[3-(p-tolyl)ureido]-1,2,4-thiadiazole]	45.1	26.6
CCSc1nsc(NC(=O)Nc2cccc(Cl)c2C)n1 [BC24862, 5-[3-(3-chloro-2-tolyl)ureido]-3-(ethylthio)-1,2,4-thiadiazole]	7	5.68
CCSc1nsc(NC(=O)Nc2ccc(F)cc2)n1 [BC24870, 3-(ethylthio)-5-[3-(p-fluorophenyl)ureido]-1,2,4-thiadiazole]	17	10.1
CCOCCCNC(=O)Nc1nc(SCC)ns1 [BC24875, 5-[3-(3-ethoxypropyl)ureido]-3-(ethylthio)-1,2,4-thiadiazole]	> 100	> 100
CCSc1nsc(NC(=O)Nc2ccc(F)c(Cl)c2)n1 [BC24856, 5-[3-(3-chloro-4-fluorophenyl)ureido]-3-(ethylthio)-1,2,4-thiadiazole]	11.8	1.41
CCOC(=O)Cc1ccc(NC(=O)Nc2nc(SCC)ns2)cc1 [BC24865, ethyl (p-{3-[3-(ethylthio)-1,2,4-thiadiazol-5-yl]ureido}phenyl)acetate]	27.8	10.7
CCOc1ccccc1NC(=O)Nc1nc(SCC)ns1 [BC24858, 5-[3-(o-ethoxyphenyl)ureido]-3-(ethylthio)-1,2,4-thiadiazole]	> 100	24.3
CCOc1ccc(NC(=O)Nc2nc(SCC)ns2)cc1 [BC24859, 5-[3-(p-ethoxyphenyl)ureido]-3-(ethylthio)-1,2,4-thiadiazole]	> 100	52.1
CCSc1nsc(NC(=O)NC(C)(C)C)n1 [BC24900, 5-(3-tert-butylureido)-3-(ethylthio)-1,2,4-thiadiazole]	> 100	> 100
CCOC(=O)[C@H](C)NC(=O)Nc1nc(SCC)ns1 [BC24902, ethyl (S)-2-{3-[3-(ethylthio)-1,2,4-thiadiazol-5-yl]ureido}propionate]	> 100	> 100
CCSc1nsc(NC(=O)Nc2cc(F)cc(F)c2)n1 [BC24850, 5-[3-(3,5-difluorophenyl)ureido]-3-(ethylthio)-1,2,4-thiadiazole]	2.96	1.22
CCSc1nsc(NC(=O)Nc2cccc(F)c2C)n1 [BC24907, 3-(ethylthio)-5-[3-(3-fluoro-2-tolyl)ureido]-1,2,4-thiadiazole]	9.85	3.36
CCSc1nsc(NC(=O)Nc2cc(OC)ccc2OC)n1 [BC24853, 5-[3-(2,5-dimethoxyphenyl)ureido]-3-(ethylthio)-1,2,4-thiadiazole]	> 100	9.87
CCSc1nsc(NC(=O)Nc2cccc(Cl)c2F)n1 [BC24911, 5-[3-(3-chloro-2-fluorophenyl)ureido]-3-(ethylthio)-1,2,4-thiadiazole]	9.72	8.13
CCSc1nsc(NC(=O)Nc2ccccc2Cl)n1 [BC24843, 5-[3-(o-chlorophenyl)ureido]-3-(ethylthio)-1,2,4-thiadiazole]	26.2	16.2
CCSc1nsc(NC(=O)Nc2cccc(OC)c2)n1 [BC24841, 3-(ethylthio)-5-[3-(m-methoxyphenyl)ureido]-1,2,4-thiadiazole]	12.3	5.5

SMILES	IC50 [1] [µM]	IC50 [2] [µM]
CCSc1nsc(NC(=O)NCc2ccco2)n1 [BC24885, 3-(ethylthio)-5-(3-furfurylureido)-1,2,4-thiadiazole]	> 100	> 100
CCSc1nsc(NC(=O)NCc2ccc(F)cc2)n1 [BC24886, 3-(ethylthio)-5-{3-[(p-fluorophenyl)methyl]ureido}-1,2,4-thiadiazole]	> 100	> 100
CCOC(=O)CCNC(=O)Nc1nc(SCC)ns1 [BC24897, ethyl 3-{3-[3-(ethylthio)-1,2,4-thiadiazol-5-yl]ureido}propionate]	> 100	> 100
CCSc1nsc(NC(=O)NC[C@H]2CCCO2)n1 [BC24887, 3-(ethylthio)-5-(3-{[(R)-perhydro-2-furyl]methyl}ureido)-1,2,4-thiadiazole]	> 100	> 100
CCSc1nsc(NC(=O)Nc2ccccc2CC)n1 [BC24864, 5-[3-(o-ethylphenyl)ureido]-3-(ethylthio)-1,2,4-thiadiazole]	47.4	63.8
CCSc1nsc(NC(=O)Nc2ccccc2OC)n1 [BC24840, 3-(ethylthio)-5-[3-(o-methoxyphenyl)ureido]-1,2,4-thiadiazole]	> 100	11.5
CCSc1nsc(NC(=O)Nc2ccccc2C)n1 [BC24855, 3-(ethylthio)-5-[3-(o-tolyl)ureido]-1,2,4-thiadiazole]	35.2	8.23
CCSc1nsc(NC(=O)NCc2cccc(OC)c2)n1 [BC24883, 3-(ethylthio)-5-{3-[(m-methoxyphenyl)methyl]ureido}-1,2,4-thiadiazole]	> 100	67.8
CCSc1nsc(NC(=O)Nc2ccc(C)c(C)c2)n1 [BC24848, 3-(ethylthio)-5-[3-(3,4-xylyl)ureido]-1,2,4-thiadiazole]	15.5	7.05
CCOC(=O)C[C@H](NC(=O)Nc1nc(SCC)ns1)c1ccccc1 [BC24871, ethyl (S)-3-{3-[3-(ethylthio)-1,2,4-thiadiazol-5-yl]ureido}-3-phenylpropionate]	> 100	23.1
CCSc1nsc(NC(=O)NCCC(C)C)n1 [BC24893, 3-(ethylthio)-5-(3-isopentylureido)-1,2,4-thiadiazole]	18.5	13.7
CCSc1nsc(NC(=O)NC(C)C)n1 [BC24891, 3-(ethylthio)-5-(3-isopropylureido)-1,2,4-thiadiazole]	> 100	> 100
CCSc1nsc(NC(=O)Nc2cccc(F)c2)n1 [BC24895, 3-(ethylthio)-5-[3-(m-fluorophenyl)ureido]-1,2,4-thiadiazole]	8.87	2.53
CCSc1nsc(NC(=O)NCCc2ccccc2)n1 [BC24881, 3-(ethylthio)-5-(3-phenethylureido)-1,2,4-thiadiazole]	30	31.9
CCCCc1ccc(NC(=O)Nc2nc(SCC)ns2)cc1 [BC24908, 5-[3-(p-butylphenyl)ureido]-3-(ethylthio)-1,2,4-thiadiazole]	30	18.3
CCSc1nsc(NC(=O)Nc2ccc(C(F)(F)F)cc2)n1 [BC24912, 3-(ethylthio)-5-{3-[p-(trifluoromethyl)phenyl]ureido}-1,2,4-thiadiazole]	1.76	0.672
CCSc1nsc(NC(=O)Nc2cccc(Br)c2)n1 [BC24860, 5-[3-(m-bromophenyl)ureido]-3-(ethylthio)-1,2,4-thiadiazole]	1.18	1.18
